System: benzodiazepine receptors
Experiment: in vivo displacement of radioactive labelled flunitrazepam from benzodiazepine receptors
Details: dose which causes the specific binding of flunitrazepam to benzodiazepine receptors in a living brain to be reduced to 50% of the control value; test as described in US 4,774,245
Excerpt: The pharmaceutical properties of the compounds of the invention can be illustrated by determining their capability for displacing radioactive labelled flunitrazepam from benzodiazepine receptors.
The displacement activity of the compounds of the invention may be found by determining the ED50 value. The ED50 value represents the dose (mg/kg) of a test substance which causes the specific binding of flunitrazepam to benzodiazepine receptors in a living brain to be reduced to 50% of the control value.
Such an in vivo test is carried out as described in US 4,774,245.

CN(C)c1nc2ccccc2n2cnc(-c3noc(C4CC4)n3)c12.Cl [Compound 4, 3-(5-cyclopropyl-1,2,4-oxadiazol-3-yl)-4-dimethylamino-imidazo[1,5-a]quinoxaline hydrochloride]
ED50: 4.1 mg/kg

CN(C)c1nc2c(-c3noc(C4CC4)n3)ncn2c2ccccc12 [Compound 13, 3-(5-cyclopropyl-1,2,4-oxadiazol-3-yl)-5-dimethylamino-imidazo[1,5-a]quinazoline]
ED50: 1.5 mg/kg

c1ccc2c(c1)c(N1CCOCC1)nc1c(-c3noc(C4CC4)n3)ncn12 [Compound 14, 3-(5-cyclopropyl-1,2,4-oxadiazol-3-yl)-5-morpholino-imidazo[1,5-a]quinazoline]
ED50: 1.9 mg/kg

c1ccc2c(c1)c(N1CCOCC1)nc1c(-c3nc(C4CC4)no3)ncn12 [Compound 19, 3-(3-cyclopropyl-1,2,4-oxadiazol-5-yl)-5-morpholino-imidazo[1,5-a]quinazoline]
ED50: 1.6 mg/kg
